The target in this test is T1, EBP (Homo sapiens, UniProt Q15125).
T1 construct: HEK293T cells were utilized as the source of EBP enzyme; endogenous in cells; host or cells: HEK293T
T1 sequence (Q15125 whole entry): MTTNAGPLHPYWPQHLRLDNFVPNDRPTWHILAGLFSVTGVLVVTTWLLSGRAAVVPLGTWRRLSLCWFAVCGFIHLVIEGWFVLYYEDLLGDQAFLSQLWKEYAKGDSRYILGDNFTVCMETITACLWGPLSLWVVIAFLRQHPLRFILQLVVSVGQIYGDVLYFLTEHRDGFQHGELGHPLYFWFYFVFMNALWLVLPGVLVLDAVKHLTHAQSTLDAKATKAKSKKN
The test can be described thus: EBP Functional Assay (EBP immunoaffinity LC-MS assay). It counts as biochemical. The settings on record: EBP enzyme from HEK293T cells; 30 min with inhibitor, then zymosterol-d5, 37° C., 4 h; percent conversion to dehydrolathosterol-d5 by LC-APCI MRM MS. The protocol:
The EBP immunoaffinity (IA) LC-MS assay measures the potency of small molecule inhibitors of EBP by quantifying their concentration-dependent changes in the enzyme's substrate and product using liquid chromatography atmospheric pressure chemical ionization multiple reaction monitoring mass spectrometry (LC-APCI MRM MS). HEK293T cells were utilized as the source of EBP enzyme. The enzyme was incubated with the small molecule inhibitors at variable concentrations for 30 min. Deuterated form of EBP substrate, zymosterol-d5 (Avanti Polar Lipids, Cat #700068P-1 mg), was then added and the plate was incubated at 37° C. for 4 h. Finally, the sterol isomers were extracted and injected to LC-APCI MRM MS. MRM transition used for the quantification for both zymosterol and […] (substrate and product of EBP enzymatic reaction, respectively) is 372.3-203.2, CE 30 and DP 80 in positive ion mode. Percent conversion of the zymosterol-d5 to dehydrolathosterol-d5 was used to derive IC50 curves. Tasin-1 (1′-[(4-Methoxyphenyl)sulfonyl]-4-methyl-1,4′-bipiperidine, CAS 792927-06-1) was used as the reference small molecule inhibitor.
Percent conversion versus the compound concentration data were fit to the following 4-parameter logistic model to generate IC50 curves: […]
In the case of “4-((6-((2-methyl-6-(trifluoromethyl)pyridin-3-yl)sulfonyl)-2,6-diazaspiro[3.3]heptan-2-yl)methyl)tetrahydro-2H-pyran-4-ol [Example 75]”, the IC50 (usually the point on the concentration scale where inhibition reaches its midpoint) was in the range of 250 to 4000 nM.

Molecule `Cc1nc(C(F)(F)F)ccc1S(=O)(=O)N1CC2(CN(C(C)C3CCOC3)C2)C1` (mixture of isomers) [Example 130] yielded an IC50 of less than 100 nM.

On to `Cc1nc(C(F)(F)F)ccc1S(=O)(=O)N1CC2(CN(C(C)C3(C)CCCO3)C2)C1` (mixture of isomers) [Example 135], for which the 50% inhibitory concentration (IC50) was less than 100 nM.

Molecule `Cc1nc(C(F)(F)F)ccc1S(=O)(=O)N1CC2(CN(C(C)C3CCCO3)C2)C1` (mixture of isomers) [Example 138] displayed an IC50 of less than 100 nM.

`O=S(=O)(c1ccc(OC(F)F)cc1)N1CCOC2(CCN(C3CCOCC3)C2)C1` (racemic) [Example 2, 9-((4-(Difluoromethoxy)phenyl)sulfonyl)-2-(tetrahydro-2H-pyran-4-yl)-6-oxa-2,9-diazaspiro[4.5]decane] had an IC50 of 100 to 250 nM.

`O=S(=O)(c1ccc(OC(F)F)cc1)N1CCOC2(CCN(C3CCOC3)CC2)C1` (racemic) [Example 6, 4-((4-(Difluoromethoxy)phenyl)sulfonyl)-9-(tetrahydrofuran-3-yl)-1-oxa-4,9-diazaspiro[5.5]undecane] displayed an IC50 of 250 to 4000 nM.

`O=S(=O)(c1ccc(OC(F)F)cc1)N1CCO[C@@]2(CCN([C@H]3CCCOC3)C2)C1` (racemic) [Example 8, (±)—(R)-9-((4-(Difluoromethoxy)phenyl)sulfonyl)-2-((S)-tetrahydro-2H-pyran-3-yl)-6-oxa-2,9-diazaspiro[4.5]decane] yielded an IC50 of 250 to 4000 nM.

In turn, `O=S(=O)(c1ccc(OC(F)F)cc1)N1CCO[C@@]2(CCN([C@@H]3CCCOC3)C2)C1` (racemic) [Example 9, (±)—(R)-9-((4-(Difluoromethoxy)phenyl)sulfonyl)-2-((R)-tetrahydro-2H-pyran-3-yl)-6-oxa-2,9-diazaspiro[4.5]decane] returned an IC50 of 250 to 4000 nM.

`O=S(=O)(c1ccc(OC(F)F)cc1)N1CCOC2(CCN(C3CC4(COC4)C3)C2)C1` (racemic) [Example 25, 9-((4-(Difluoromethoxy)phenyl)sulfonyl)-2-(2-oxaspiro[3.3]heptan-6-yl)-6-oxa-2,9-diazaspiro[4.5]decane] displayed an IC50 of less than 100 nM.

The molecule `Cc1nc(C(F)(F)F)ccc1S(=O)(=O)N1CC2(CN(C3CC4(CCO4)C3)C2)C1` (racemic) [Example 69, rac-2-((2-methyl-6-(trifluoromethyl)pyridin-3-yl)sulfonyl)-6-(1-oxaspiro[3.3]heptan-6-yl)-2,6-diazaspiro[3.3]heptane] had an IC50 of 250 to 4000 nM.

In turn, `Cc1cc(C(F)(F)F)nc(C)c1S(=O)(=O)N1CC2(CN(CC3CCOC3)C2)C1` (racemic) [Example 103] registered an IC50 of 100 to 250 nM.

The molecule `Cc1nc(C(F)(F)F)ccc1S(=O)(=O)N1CC2(CN(C(C)C3CCOCC3)C2)C1` (racemic) [Example 153, rac-2-((2-methyl-6-(trifluoromethyl)pyridin-3-yl)sulfonyl)-6-(1-(tetrahydro-2H-pyran-4-yl)ethyl)-2,6-diazaspiro[3.3]heptane] came in with an IC50 of less than 100 nM.

`Cc1nc(C(F)(F)F)ccc1S(=O)(=O)N1CC2(CN(C(C)C3COC3)C2)C1` (racemic) [Example 155, rac-2-((2-methyl-6-(trifluoromethyl)pyridin-3-yl)sulfonyl)-6-(1-(oxetan-3-yl)ethyl)-2,6-diazaspiro[3.3]heptane] registered an IC50 of less than 100 nM.

`Cc1nc(C(F)(F)F)ccc1S(=O)(=O)N1CC2(CN(C(C)C34COC(C)(C3)C4)C2)C1` (racemic) [Example 167, rac-2-(1-(1-methyl-2-oxabicyclo[2.1.1]hexan-4-yl)ethyl)-6-((2-methyl-6-(trifluoromethyl)pyridin-3-yl)sulfonyl)-2,6-diazaspiro[3.3]heptane] displayed an IC50 of less than 100 nM.

Turning to `Cc1nc(C(F)(F)F)ccc1S(=O)(=O)N1CC2(CN(CC[C@@H]3COC(C)(C)O3)C2)C1` (racemic) [Example 173], the IC50 is 100 to 250 nM.

With `Cc1nc(C(F)(F)F)ccc1S(=O)(=O)N1CC2(CN(C[C@H]3[C@H](C#N)C3(C)C)C2)C1` (racemic) [Example 174], the IC50 is 100 to 250 nM.

Molecule `Cc1nc(C(F)(F)F)ccc1S(=O)(=O)N1CC2(CN(C[C@@H]3CC[C@H]4C[C@H]3CO4)C2)C1` (racemic) [Example 175] came in with an IC50 of less than 100 nM.

In the case of `Cn1nc(C(F)(F)F)cc1S(=O)(=O)N1CC2(CN(CC3CCOC3)C2)C1` (racemic) [Example 197, rac-2-((1-Methyl-3-(trifluoromethyl)-1H-pyrazol-5-yl)sulfonyl)-6-((tetrahydrofuran-3-yl)methyl)-2,6-diazaspiro[3.3]heptane], the IC50 is less than 100 nM.

Regarding `Cn1nc(C(F)(F)F)cc1S(=O)(=O)N1CC2(CN(CC3CCOC(C)(C)C3)C2)C1` (racemic) [Example 198, rac-2-((2,2-dimethyltetrahydro-2H-pyran-4-yl)methyl)-6-((1-methyl-3-(trifluoromethyl)-1H-pyrazol-5-yl)sulfonyl)-2,6-diazaspiro[3.3]heptane], the IC50 was less than 100 nM.

`CC(C1CCOCC1)N1CC2(C1)CN(S(=O)(=O)c1cc(C(F)(F)F)nn1C)C2` (racemic) [Example 212, rac-2-((1-methyl-3-(trifluoromethyl)-1H-pyrazol-5-yl)sulfonyl)-6-(1-(tetrahydro-2H-pyran-4-yl)ethyl)-2,6-diazaspiro[3.3]heptane] returned an IC50 of less than 100 nM.

In the case of `Cn1nc(C(F)(F)F)cc1S(=O)(=O)N1CC2(CN(CC3COCCO3)C2)C1` (racemic) [Example 215, rac-2-((1,4-dioxan-2-yl)methyl)-6-((1-methyl-3-(trifluoromethyl)-1H-pyrazol-5-yl)sulfonyl)-2,6-diazaspiro[3.3]heptane], the IC50 was in the range of 250 to 4000 nM.

Molecule `Cc1nc(C(F)(F)F)ccc1S(=O)(=O)N1CC2(CN(CC3COCCO3)C2)C1` (racemic) [Example 216, rac-2-((1,4-dioxan-2-yl)methyl)-6-((2-methyl-6-(trifluoromethyl)pyridin-3-yl)sulfonyl)-2,6-diazaspiro[3.3]heptane] registered an IC50 of 250 to 4000 nM.

Take `O=S(=O)(c1ccc(OC(F)F)cc1)N1CCO[C@]2(CCN(C3CCOCC3)C2)C1` (single isomer, unassigned) [Example 3]: the IC50 is 100 to 250 nM.

`O=S(=O)(c1ccc(OC(F)F)cc1)N1CCO[C@@]2(CCN(C3CCOCC3)C2)C1` (single isomer, unassigned) [Example 4] came in with an IC50 of less than 100 nM.

In turn, `O=S(=O)(c1cc(F)cc(F)c1)N1CCO[C@]2(CCN(C3CCOCC3)C2)C1` (single isomer, unassigned) [Example 14] gave an IC50 of less than 100 nM.

`O=S(=O)(c1cc(F)cc(F)c1)N1CCO[C@@]2(CCN(C3CCOCC3)C2)C1` (single isomer, unassigned) [Example 15] had an IC50 of 100 to 250 nM.

With `O=S(=O)(c1ccc(OC(F)F)cc1)N1CCO[C@@]2(CCN(C3CC4(COC4)C3)C2)C1` (single isomer, unassigned) [Example 26], the IC50 was 100 to 250 nM.

`O=S(=O)(c1ccc(OC(F)F)cc1)N1CCO[C@]2(CCN(C3CC4(COC4)C3)C2)C1` (single isomer, unassigned) [Example 27] gave an IC50 of 100 to 250 nM.

`COC1CCC(N2CC3(C2)CN(S(=O)(=O)c2ccc(C(F)F)nc2C2CC2)C3)CC1` (single isomer, unassigned) [Example 117, 2-((2-cyclopropyl-6-(difluoromethyl)pyridin-3-yl)sulfonyl)-6-(4-methoxycyclohexyl)-2,6-diazaspiro[3.3]heptane] returned an IC50 of 250 to 4000 nM.

The molecule `COC1CCC(N2CC3(C2)CN(S(=O)(=O)c2ccc(C(F)F)nc2C2CC2)C3)CC1` (single isomer, unassigned) [Example 118, 2-((2-cyclopropyl-6-(difluoromethyl)pyridin-3-yl)sulfonyl)-6-(4-methoxycyclohexyl)-2,6-diazaspiro[3.3]heptane] had an IC50 of 100 to 250 nM.

`CC1(O)CCC(N2CC3(C2)CN(S(=O)(=O)c2cnc(C(F)(F)F)cc2C2CC2)C3)CC1` (single isomer, unassigned) [Example 123, 4-(6-((4-cyclopropyl-6-(trifluoromethyl)pyridin-3-yl)sulfonyl)-2,6-diazaspiro[3.3]heptan-2-yl)-1-methylcyclohexan-1-ol] displayed an IC50 of 100 to 250 nM.

In turn, `CC1(O)CCC(N2CC3(C2)CN(S(=O)(=O)c2cnc(C(F)(F)F)cc2C2CC2)C3)CC1` (single isomer, unassigned) [Example 124, 4-(6-((4-cyclopropyl-6-(trifluoromethyl)pyridin-3-yl)sulfonyl)-2,6-diazaspiro[3.3]heptan-2-yl)-1-methylcyclohexan-1-ol] returned an IC50 of 100 to 250 nM.

The molecule `CCc1cc(C(F)(F)F)ncc1S(=O)(=O)N1CC2(CN(C3CCC(C)(O)CC3)C2)C1` (single isomer, unassigned) [Example 127, 4-(6-((4-ethyl-6-(trifluoromethyl)pyridin-3-yl)sulfonyl)-2,6-diazaspiro[3.3]heptan-2-yl)-1-methylcyclohexan-1-ol] came in with an IC50 of less than 100 nM.

Source of the values: patent US20250171463A1 (BIOGEN MA INC., priority 2022, published 2025).
